Assay results taken from patent publication US20250320193A1, “OXOISOINDOLINYL SUBSTITUTED PIPERIDINEDIONE DERIVATIVE AND USE THEREOF” (GLUETACS THERAPEUTICS (SHANGHAI) CO., LTD., priority 2022, published 2025).

Legend:
IKZF1 = IKZF1 (Homo sapiens (Human), UniProt Q13422+Q96SW2); assay: Western blot, substrate protein expression in hPBMC: IKZF1; format: cell-based; conditions: for substrate protein remaining % IKZF1: hPBMC, compound 500 nM, 24 hours, Western blot
Procedure, shortened: (§1)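 hPBMC, 1×10^6 cells/mL, 24 h compound exposure; RIPA lysis, BCA protein assay, SDS-PAGE, NC membrane immunoblot. Densitometry vs internal control → % protein remaining; degradation % = 100% − remaining; DC50 = conc. at 50% of DMSO band signal.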

GSPT1 = GSPT1 (Homo sapiens (Human), UniProt P15170+Q96SW2); assay: Western blot, substrate protein expression in hPBMC: GSPT1; format: cell-based; conditions: for substrate protein remaining % GSPT1: hPBMC, compound 500 nM, 24 hours, Western blot
Procedure, shortened: as §1

[1] = test system: MDA-MB-231 cells (human breast adenocarcinoma cells); assay: Tumor cell proliferation inhibition, CCK-8; format: cell-based; conditions: MDA-MB-231 cells, CCK-8, read-out: inhibitory activity (IC50, nM) MDA-MB-231
Method: (§2) The tumor cells used herein were cultured in a cell culture medium listed in table 2 at 37° C. in an incubator with 5% CO2. Prior to experimentation, all cells used were correctly identified by STR profiling, and tested negative for mycoplasma through routine screenings.
(§3) IC50 values of the compounds of the present disclosure (including the compounds in Table 1 and the Examples 1-305 compounds) were measured using the Meilun Cell Counting Kit-8 kit from Dalian Meilun Biotech Co., Ltd. Assay details are as follows: tumor cells were seeded in a 96-well plate at a density listed in Table 5. After 24 h, 100 μL of the inoculated cells were treated with 0.5 μL of the compounds of the present disclosure (including the compounds in Table 1 and the Examples 1-305 compounds) at 10 different successively decreasing concentrations (starting at the highest concentration of 10 μM; 5-fold serial dilutions). After the cells were treated with the compounds of the present disclosure for a period of time, the cell viability detection reagent was added to the culture medium for cell viability assessment according to the instructions provided with the CCK-8 kit. […] The growth inhibition of the compounds of the present disclosure on cells was plotted by Prism Graphpad software, and the IC50 values of the compounds of the present disclosure were calculated therefrom.

[2] = test system: TMD8 cells (human diffuse large B-cell lymphoma cells); assay: Tumor cell proliferation inhibition, CCK-8; format: cell-based; conditions: TMD8 cells, CCK-8, read-out: inhibitory activity (IC50, nM) TMD8
Method: as §2, §3

[3] = test system: H146 cells (human small cell lung carcinoma cells); assay: Tumor cell proliferation inhibition, CCK-8; format: cell-based; conditions: NCI-H146, H146 cells, CCK-8, read-out: inhibitory activity (IC50, nM) H146
Method: as §2, §3

[4] = test system: MM.1S cells (human multiple myeloma cells); assay: Tumor cell proliferation inhibition, CCK-8; format: cell-based; conditions: MM1.S, MM.1S cells, CCK-8, read-out: inhibitory activity (IC50, nM) MM.1S
Method: as §2, §3

[5] = target: human Cereblon WT GST-tagged protein (Homo sapiens (Human), UniProt Q96SW2); assay: CRBN-binding affinity, HTRF (CEREBLON BINDING kit, CISBIO); conditions: HTRF inhibitory activity
Procedure, shortened: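 HTRF competition format: test compound displaces Thalidomide-Red from GST-tagged human Cereblon WT, detected with a Eu-labelled anti-GST antibody. Percent CRBN binding inhibition was derived from the 620 nm signal, normalized to solvent-control and protein-free blank wells.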

IKZF3 = IKZF3 (Homo sapiens (Human), UniProt Q96SW2+Q9UKT9); assay: Western blot, substrate protein expression in hPBMC: IKZF3; format: cell-based; conditions: for substrate protein remaining % IKZF3: hPBMC, compound 500 nM, 24 hours, Western blot
Procedure, shortened: as §1

GSPT1, sequence (P15170 whole entry): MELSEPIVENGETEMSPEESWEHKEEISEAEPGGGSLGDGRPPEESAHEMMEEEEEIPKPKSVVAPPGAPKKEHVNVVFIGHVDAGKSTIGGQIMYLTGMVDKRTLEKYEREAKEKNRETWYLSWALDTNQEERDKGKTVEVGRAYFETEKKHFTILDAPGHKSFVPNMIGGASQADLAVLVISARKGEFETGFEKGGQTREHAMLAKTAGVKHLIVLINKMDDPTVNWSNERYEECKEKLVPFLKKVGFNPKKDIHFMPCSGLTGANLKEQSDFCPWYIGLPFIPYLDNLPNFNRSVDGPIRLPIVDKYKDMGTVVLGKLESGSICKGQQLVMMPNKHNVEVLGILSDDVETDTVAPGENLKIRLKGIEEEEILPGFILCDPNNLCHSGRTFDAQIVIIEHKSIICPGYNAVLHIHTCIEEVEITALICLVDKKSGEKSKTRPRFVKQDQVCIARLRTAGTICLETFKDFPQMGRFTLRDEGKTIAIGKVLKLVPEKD
GSPT1, sequence (Q96SW2 whole entry): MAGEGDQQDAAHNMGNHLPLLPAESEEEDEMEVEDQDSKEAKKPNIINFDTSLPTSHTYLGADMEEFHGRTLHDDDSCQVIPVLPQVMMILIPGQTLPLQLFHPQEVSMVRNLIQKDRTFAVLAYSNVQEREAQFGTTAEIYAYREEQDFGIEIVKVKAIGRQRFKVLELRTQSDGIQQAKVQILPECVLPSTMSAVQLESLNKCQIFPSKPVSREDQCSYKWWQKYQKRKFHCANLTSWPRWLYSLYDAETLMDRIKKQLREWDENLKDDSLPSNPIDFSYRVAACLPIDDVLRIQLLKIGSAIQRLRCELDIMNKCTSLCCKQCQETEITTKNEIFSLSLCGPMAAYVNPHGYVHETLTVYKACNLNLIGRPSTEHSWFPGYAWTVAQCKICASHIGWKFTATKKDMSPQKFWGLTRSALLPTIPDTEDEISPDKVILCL
GSPT1, sequence (Q16531 whole entry partner): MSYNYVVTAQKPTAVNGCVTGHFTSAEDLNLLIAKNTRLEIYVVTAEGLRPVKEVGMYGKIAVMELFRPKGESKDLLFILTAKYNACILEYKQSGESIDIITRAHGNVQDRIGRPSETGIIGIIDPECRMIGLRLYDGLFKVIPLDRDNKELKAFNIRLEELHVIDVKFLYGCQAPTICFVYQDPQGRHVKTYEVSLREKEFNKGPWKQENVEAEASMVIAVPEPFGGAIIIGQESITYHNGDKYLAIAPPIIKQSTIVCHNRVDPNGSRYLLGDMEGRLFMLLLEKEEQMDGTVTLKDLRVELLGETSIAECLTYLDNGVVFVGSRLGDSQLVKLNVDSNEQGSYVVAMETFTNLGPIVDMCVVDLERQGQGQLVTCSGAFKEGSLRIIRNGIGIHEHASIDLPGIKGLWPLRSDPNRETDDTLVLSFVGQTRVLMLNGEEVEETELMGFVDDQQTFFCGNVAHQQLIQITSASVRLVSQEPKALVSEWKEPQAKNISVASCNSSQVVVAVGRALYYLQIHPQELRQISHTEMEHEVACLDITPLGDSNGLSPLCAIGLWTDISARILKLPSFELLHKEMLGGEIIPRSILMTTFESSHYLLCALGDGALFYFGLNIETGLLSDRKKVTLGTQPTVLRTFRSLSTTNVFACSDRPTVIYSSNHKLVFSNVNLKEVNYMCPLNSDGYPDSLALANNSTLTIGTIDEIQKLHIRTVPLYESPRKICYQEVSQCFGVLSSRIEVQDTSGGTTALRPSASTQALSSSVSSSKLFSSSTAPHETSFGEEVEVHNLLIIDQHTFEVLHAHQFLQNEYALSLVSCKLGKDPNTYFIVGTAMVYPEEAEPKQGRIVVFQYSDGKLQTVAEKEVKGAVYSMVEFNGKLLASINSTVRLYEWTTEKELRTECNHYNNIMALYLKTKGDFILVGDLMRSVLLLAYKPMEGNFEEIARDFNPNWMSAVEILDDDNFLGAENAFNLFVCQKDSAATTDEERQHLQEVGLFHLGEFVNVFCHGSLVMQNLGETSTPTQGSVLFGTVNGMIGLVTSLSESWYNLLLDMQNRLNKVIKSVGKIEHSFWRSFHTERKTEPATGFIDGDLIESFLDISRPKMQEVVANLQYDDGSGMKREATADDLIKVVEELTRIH
human Cereblon WT GST-tagged protein, sequence (Q96SW2 whole entry): as the sequence (Q96SW2 whole entry) above
IKZF1, sequence (Q13422 whole entry): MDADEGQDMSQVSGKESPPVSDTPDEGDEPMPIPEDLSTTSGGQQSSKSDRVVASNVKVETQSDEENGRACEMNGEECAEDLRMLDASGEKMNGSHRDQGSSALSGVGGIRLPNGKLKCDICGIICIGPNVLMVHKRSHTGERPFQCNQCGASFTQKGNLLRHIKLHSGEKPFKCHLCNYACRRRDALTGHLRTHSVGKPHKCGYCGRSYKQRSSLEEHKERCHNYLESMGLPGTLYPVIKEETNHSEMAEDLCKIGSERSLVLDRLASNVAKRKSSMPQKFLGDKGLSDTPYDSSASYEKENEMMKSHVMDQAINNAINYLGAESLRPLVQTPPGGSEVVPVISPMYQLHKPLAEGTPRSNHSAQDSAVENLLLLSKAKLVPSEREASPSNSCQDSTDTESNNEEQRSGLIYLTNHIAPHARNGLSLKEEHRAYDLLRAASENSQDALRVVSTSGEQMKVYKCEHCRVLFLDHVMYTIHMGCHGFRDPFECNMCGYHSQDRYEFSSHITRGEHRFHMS
IKZF1, sequence (Q96SW2 whole entry): as the sequence (Q96SW2 whole entry) above
IKZF1, sequence (Q16531 whole entry partner): as the sequence (Q16531 whole entry partner) above
IKZF3, sequence (Q9UKT9 whole entry): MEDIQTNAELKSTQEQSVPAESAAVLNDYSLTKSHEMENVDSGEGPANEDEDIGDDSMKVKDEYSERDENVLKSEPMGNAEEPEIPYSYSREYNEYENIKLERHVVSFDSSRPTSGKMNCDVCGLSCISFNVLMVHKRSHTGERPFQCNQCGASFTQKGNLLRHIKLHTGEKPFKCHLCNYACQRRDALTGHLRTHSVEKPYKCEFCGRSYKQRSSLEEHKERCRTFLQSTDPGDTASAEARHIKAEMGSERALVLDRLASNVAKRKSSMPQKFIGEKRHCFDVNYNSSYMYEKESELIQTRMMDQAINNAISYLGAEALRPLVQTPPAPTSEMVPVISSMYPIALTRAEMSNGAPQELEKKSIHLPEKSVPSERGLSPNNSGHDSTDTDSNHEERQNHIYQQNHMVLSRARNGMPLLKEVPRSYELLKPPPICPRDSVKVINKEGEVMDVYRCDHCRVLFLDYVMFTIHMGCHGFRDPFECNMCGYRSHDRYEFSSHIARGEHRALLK
IKZF3, sequence (Q96SW2 whole entry): as the sequence (Q96SW2 whole entry) above
IKZF3, sequence (Q16531 whole entry partner): as the sequence (Q16531 whole entry partner) above

IC50 [2]	IC50 [3]	IC50 [4]	IC50 [5]	SMILES	substrate protein remaining % IKZF1 (IKZF1)	concentration at which IKZF1 protein was significantly degraded (Western blot, FIG. 1) (IKZF1; hPBMCs)	substrate protein remaining % GSPT1 (GSPT1)	concentration at which GSPT1 protein was clearly/significantly degraded (Western blot, FIG. 1) (GSPT1; hPBMCs)	IC50 [1]	substrate protein remaining % IKZF3 (IKZF3)	concentration at which IKZF3 protein was significantly degraded (Western blot, FIG. 1) (IKZF3; hPBMCs)
–	–	50 to 100 nM	< 500 nM	O=C1CCC(N2Cc3cc(CCN4CCN(C(c5ccccc5)c5ccccc5)CC4)ccc3C2=O)C(=O)N1 (centres unmarked) [GT-05696, 3-(5-(2-(4-benzhydrylpiperazin-1-yl)ethyl)-1-oxoisoindolin-2-yl)piperidine-2,6-dione]	A (A represents 0% ≤ substrate protein remaining % ≤ 50%)	–	A (A represents 0% ≤ substrate protein remaining % ≤ 50%)	–	–	A (A represents 0% ≤ substrate protein remaining % ≤ 50%)	–
–	100 to 500 nM	50 to 100 nM	500 to 1000 nM	O=C1CCC(N2Cc3cc(CN4CC5CN(C(c6ccccc6)c6ccccc6)CC5C4)c(F)cc3C2=O)C(=O)N1 (centres unmarked) [GT-06051, 3-(5-((5-benzhydrylhexahydropyrrolo[3,4-c]pyrrol-2 (1H)-yl)methyl)-6-fluoro-1-oxoisoindolin-2-yl)piperidine-2,6-dione]	B (B represents substrate protein remaining % > 50%)	–	A (A represents 0% ≤ substrate protein remaining % ≤ 50%)	–	–	B (B represents substrate protein remaining % > 50%)	–
–	100 to 500 nM	10 to 50 nM	< 500 nM	O=C1CCC(N2Cc3cc(C(=O)N4CCN(C(c5ccccc5F)c5ccccc5F)CC4)ccc3C2=O)C(=O)N1 (centres unmarked) [GT-06104, 3-(5-(4-(bis(2-fluorophenyl)methyl)piperazine-1-carbonyl)-1-oxoisoindolin-2-yl)piperidine-2,6-dione]	A (A represents 0% ≤ substrate protein remaining % ≤ 50%)	–	A (A represents 0% ≤ substrate protein remaining % ≤ 50%)	–	500 to 1000 nM	B (B represents substrate protein remaining % > 50%)	–
–	–	–	< 500 nM	O=C1CCC(N2Cc3c(C(=O)N4CCN(C(c5cccc(F)c5)c5cccc(F)c5)CC4)cccc3C2=O)C(=O)N1 (centres unmarked) [GT-06148, 3-(4-(4-(bis(3-fluorophenyl)methyl)piperazine-1-carbonyl)-1-oxoisoindolin-2-yl)piperidine-2,6-dione]	B (B represents substrate protein remaining % > 50%)	–	A (A represents 0% ≤ substrate protein remaining % ≤ 50%)	–	–	B (B represents substrate protein remaining % > 50%)	–
–	–	–	1000 to 1900 nM	O=C1CCC(N2C(=O)c3ccc(C(=O)N4CCN(C(c5cccc(F)c5)c5cccc(F)c5)CC4)cc3C2=O)C(=O)N1 (centres unmarked) [GT-06206, 5-(4-(bis(3-fluorophenyl)methyl)piperazine-1-carbonyl)-2-(2,6-dioxopiperidin-3-yl) isoindoline-1,3-dione]	B (B represents substrate protein remaining % > 50%)	–	A (A represents 0% ≤ substrate protein remaining % ≤ 50%)	–	–	B (B represents substrate protein remaining % > 50%)	–
–	–	–	500 to 1000 nM	O=C1CCC(N2Cc3cc(CN4CCN(C(c5ccccc5)c5ccc(Br)cc5)CC4)ccc3C2=O)C(=O)N1 (centres unmarked) [GT-06640, 3-(5-((4-((4-bromophenyl) (phenyl)methyl)piperazin-1-yl)methyl)-1-oxoisoindolin-2-yl)piperidine-2,6-dione]	A (A represents 0% ≤ substrate protein remaining % ≤ 50%)	–	A (A represents 0% ≤ substrate protein remaining % ≤ 50%)	–	–	A (A represents 0% ≤ substrate protein remaining % ≤ 50%)	–

The remaining lines, values behind:

SMILES	IC50 [2]	IC50 [3]	IC50 [4]	IC50 [5]	substrate protein remaining % IKZF1 (IKZF1)	concentration at which IKZF1 protein was significantly degraded (Western blot, FIG. 1) (IKZF1; hPBMCs)	substrate protein remaining % GSPT1 (GSPT1)	concentration at which GSPT1 protein was clearly/significantly degraded (Western blot, FIG. 1) (GSPT1; hPBMCs)	IC50 [1]	substrate protein remaining % IKZF3 (IKZF3)	concentration at which IKZF3 protein was significantly degraded (Western blot, FIG. 1) (IKZF3; hPBMCs)
O=C1CCC(N2Cc3cc(CN4CCC(N(c5ccccc5)c5ccccn5)CC4)ccc3C2=O)C(=O)N1 (centres unmarked) [GT-04525, 3-(1-oxo-5-((4-(phenyl(pyridin-2-yl)amino)piperidin-1-yl)methyl)isoindolin-2-yl)piperidine-2,6-dione]	1 to 10 nM	1 to 10 nM	< 1 nM	< 500 nM	A (A represents 0% ≤ substrate protein remaining % ≤ 50%)	below 50 nM	A (A represents 0% ≤ substrate protein remaining % ≤ 50%)	below 50 nM	1 to 10 nM	A (A represents 0% ≤ substrate protein remaining % ≤ 50%)	below 50 nM
O=C1CCC(N2C(=O)c3ccc(CN4CCC(N(c5ccccc5)c5ccccc5)CC4)cc3C2=O)C(=O)N1 (centres unmarked) [GT-05741, 2-(2,6-dioxopiperidin-3-yl)-5-((4-(diphenylamino)piperidin-1-yl)methyl) isoindoline-1,3-dione]	–	50 to 100 nM	10 to 50 nM	–	A (A represents 0% ≤ substrate protein remaining % ≤ 50%)	–	A (A represents 0% ≤ substrate protein remaining % ≤ 50%)	–	100 to 500 nM	A (A represents 0% ≤ substrate protein remaining % ≤ 50%)	–
O=C1CCC(N2C(=O)c3ccc(CN4CCN(C(c5cccc(F)c5)c5cccc(F)c5)CC4)cc3C2=O)C(=O)N1 (centres unmarked) [GT-06118, 5-((4-(bis(3-fluorophenyl)methyl)piperazin-1-yl)methyl)-2-(2,6-dioxopiperidin-3-yl) isoindoline-1,3-dione]	500 to 1000 nM	100 to 500 nM	50 to 100 nM	–	A (A represents 0% ≤ substrate protein remaining % ≤ 50%)	–	A (A represents 0% ≤ substrate protein remaining % ≤ 50%)	–	–	A (A represents 0% ≤ substrate protein remaining % ≤ 50%)	–
O=C1CCC(N2Cc3cc(CN4CCC(N(c5ccccc5)c5ccccc5)CC4)cc(F)c3C2=O)C(=O)N1 (centres unmarked) [GT-06133, 3-(5-((4-(diphenylamino)piperidin-1-yl)methyl)-7-fluoro-1-oxoisoindolin-2-yl)piperidine-2,6-dione]	–	100 to 500 nM	10 to 50 nM	< 500 nM	B (B represents substrate protein remaining % > 50%)	–	A (A represents 0% ≤ substrate protein remaining % ≤ 50%)	–	500 to 1000 nM	B (B represents substrate protein remaining % > 50%)	–
O=C1CCC(N2Cc3cc(CN4CCN(C(c5ccc(C(F)(F)F)cc5)c5ccc(C(F)(F)F)cc5)CC4)ccc3C2=O)C(=O)N1 (centres unmarked) [GT-06199, 3-(5-((4-(bis(4-(trifluoromethyl)phenyl)methyl)piperazin-1-yl)methyl)-1-oxoisoindolin-2-yl)piperidine-2,6-dione]	–	–	10 to 50 nM	–	A (A represents 0% ≤ substrate protein remaining % ≤ 50%)	–	A (A represents 0% ≤ substrate protein remaining % ≤ 50%)	–	–	A (A represents 0% ≤ substrate protein remaining % ≤ 50%)	–
O=C1CCC(N2C(=O)c3ccc(CN4CCN(C(c5cc(F)cc(F)c5)c5cc(F)cc(F)c5)CC4)cc3C2=O)C(=O)N1 (centres unmarked) [GT-06596, 5-((4-(bis(3,5-difluorophenyl)methyl)piperazin-1-yl)methyl)-2-(2,6-dioxopiperidin-3-yl) isoindoline-1,3-dione]	500 to 1000 nM	100 to 500 nM	50 to 100 nM	–	A (A represents 0% ≤ substrate protein remaining % ≤ 50%)	–	A (A represents 0% ≤ substrate protein remaining % ≤ 50%)	–	100 to 500 nM	A (A represents 0% ≤ substrate protein remaining % ≤ 50%)	–
